Experimental data taken from article PMC10683482, “Offsetting Low-Affinity Carbohydrate Binding with Covalency to Engage Sugar-Specific Proteins for Tumor-Immune Proximity Induction” (ACS Central Science, 2023).
Read-outs that look alike come from different tables or passages of the source. One block for each compound: values may come before it.

Assays:
[1] = test system: serum polyclonal antirhamnose antibodies (human IgG); assay: BLI affinity of rhamnose probes for polyclonal human IgG; format: binding; settings: for kon: anti-rhamnose assumed 3% of total IgG; for koff: dissociation in 100 mM L-rhamnose
Excerpt: We began by synthesizing antirhamnose affinity probes consisting of α-O/α-S and β-S rhamnose glycosides functionalized with a propargyl group for CuAAC-mediated coupling to a biotin TBD (compounds 1–3, Figure 1A and Scheme S1). This enabled rhamnose immobilization onto streptavidin surfaces and subsequent antibody binding studies. We used biolayer interferometry (BLI) to estimate and compare the apparent affinity of serum polyclonal antirhamnose antibodies for each rhamnose affinity probe (Figure 1B). […] Next, biosensors were submerged in a buffer containing free rhamnose competitor, and dissociation kinetics were measured (Figure 1B, Dissociation). The dissociation buffer contained 100 mM rhamnose competitor to inhibit avidity-based antibody rebinding, which interferes with koff measurements. […] In the context of proximity-inducing molecule development, this low monovalent sugar-binding affinity will ultimately limit ternary complex formation. […] The confirmation of low affinity binding also supports why multivalency has been historically required to efficiently engage antirhamnose antibodies for tumor-immune proximity induction and engage sugar binding receptors in general.
Figure 1 Affinity determination of endogenous and monoclonal antibody sources for L-rhamnose glycoside variants. A. Chemical structures of rhamnose affinity probes. B/C. Approximation of antirhamnose antibody binding affinity for probes 1–3 using biolayer interferometry. B. Purified human serum IgG is used to estimate the affinity of endogenous polyclonal serum antirhamnose antibodies for each affinity probe 1–3. C. Monoclonal anti-23F antibody is used to estimate the potential affinity of vaccine-induced antirhamnose antibodies for each affinity probe 1–3. […] Association was monitored for 900 (B) or 600 (C) seconds. The loaded biosensor probe was then dipped into a dissociation solution of 100 mM L-rhamnose for 600 s. Association curves were fit to a two-phase association model in GraphPad Prism using Kfast to calculate kon. Dissociation curves were similarly fit to a two-phase decay using Kfast to calculate koff. TEXT PRINTED IN THE PICTURE: (B) no label printed: Polyclonal Human IgG: Kd ≈ 7 x10^-5 M | (C) no label printed: Monoclonal Anti-23F: Kd ≈ 6 x10^-6 M DOUBTS OF THE COPYIST ABOUT THIS PICTURE: Panel B, Kd ≈ 7 x10^-5 M: printed once in the plot with no link to a single curve, so it is unclear which of (1) α–O, (2) α–S and (3) β–S it applies to / Panel C, Kd ≈ 6 x10^-6 M: printed once in the plot with no link to a single curve, so it is unclear which of (1) α–O, (2) α–S and (3) β–S it applies to […]
General Notes and Materials […]
Biolayer Interferometry (BLI) General notes and Materials
IgG from human serum was purchased from Innovative Research (IHUI GGAP1000MG). Anti -23F antibody was purchased fr om Creative Biolabs (PABX -173). Biolayer Interferometry (BLI) was conducted using a ForteBio Octet Red96, and streptavidin biosensors (Sartorius - 18-5019) or ProG biosensors (Sartorius – 18-5082). For quench, a 5% skim milk (Nestle Carnation Instant Skim Milk) solution in 1X kinetics buffer was used. The instrument was set at 25 °C, with 1000 RPM, and acquisition rate of 5 Hz.
Each well of a black well plate (Greiner Bio -One - 655086) was filled with 200 µL of appropriate solution.
Dissociation buffer was comprised of L-rhamnose (100 mM, Sigma Aldrich – R3875-10G) in 1X kinetics buffer to reduce avidity contribution to dissociation rate (koff).
SDS-PAGE General notes and Materials […]
Carboxyfluorescein was purchased from Sigma Aldrich (21877 -5G-F). IgG from human serum was purchased from Innovative Research (IHUIGGAP1000MG). Anti -23F antibody was purchased from Creative Biolabs (PABX -173). Laemellie Buffer (2x) was purchased from Sigma Aldrich (S3401 -10VL).
Pre-cast Tris-Glycine Gels (4-20%) were purchased from Fisher Scientific (XP04202BOX). Standard protein ladder was purchased from Bio Rad (1610363). […]

[2] = test system: human serum antirhamnose antibody (IgG and IgM); assay: ELISA covalent engagement of serum anti-rhamnose antibody; format: binding; settings: 2 μM compound, 2% human serum, 48 h; rhamnose 100 mM added after incubation
Method: Figure 2 Capacity of Rha-cARMs to specifically covalently engage monoclonal anti-23F and serum anti-rhamnose. A. Chemical structures of the molecules investigated. B. Assessment of covalent vs noncovalent (cARM/ARM) engagement of human serum antirhamnose antibody via an ELISA assay. Each ARM/cARM (2 μM) was incubated with 2% human serum for 48 h and subsequently incubated directly on a streptavidin ELISA plate. Recruitment was evaluated by the addition of anti-IgG or anti-IgM HRP-conjugated secondary antibody with subsequent chromogenic substrate addition. “Comp” represents the addition of competitor rhamnose (500 mM) during 48 h of incubation. “Quench” refers to the addition of competitor rhamnose (100 mM) prior to ELISA plate binding but after 48 h of reaction incubation. C. SDS-PAGE fluorescent image of anti-23F antibody covalently labeled by fluorophore substituted Rha-cARMs (6–8). A representative protein stain associated with each gel is included on the left side of the fluorescent gel images. In all cases, 2 μM anti-23F antibody is incubated with 4 μM cARM (2 equiv) for 24 h in PBS spiked with 10% human serum. Where noted, L-rhamnose (100 mM, Rha. C) was used during incubation as a competitor for specific covalent labeling. Where noted, a free fluoresceine competitor (2.5 mM, Fluor. C) was used to distinguish fluorescein-promoted covalent labeling from rhamnose-promoted. The darker background in gels corresponding to cARM 6, 7 is attributed to the differing capacity of free cARM-fluorophore (fluoroscein vs A647) to be retained in gel, as well as an alternative imaging channel (Cy2 for fluorescein, Cy5 for A647). […] D. Kinetic SDS-PAGE fluorescence imaging experiment to determine Rha-AI-cARM/anti-23F antibody labeling kinetics using A647-cARM (8). cARM 8 (2–100 μM) was incubated with anti-23F antibody (2 μM) for up to 4 h. A representative fluorescence gel image is included corresponding to compound 8 (50 μM) incubated with either anti-23F antibody or isotype human IgG. Densitometry analysis with ImageJ was used to quantify relative band intensities. […] The error is calculated by alternative fits of initial rates data (all within the linear labeling range).
Next, we tested if cARM tool compounds can selectively label endogenous human polyclonal antirhamnose antibodies via ELISA (4 α-O rhamnose or 5 α-S rhamnose) (Figure 2B). cARMs (4, 5) and noncovalent analog ARMs (1, 2) were incubated with 2% human serum for 48 h followed by addition to a streptavidin-ELISA plate. Antibody recruitment to the plate surface was measured via the addition of HRP-conjugated anti-IgG or anti-IgM secondary antibody, followed by a chromogenic substrate. […] In the absence of a competitor, we observed robust absorbance signal in samples incubated with cARM. […]

[3] = target: prostate-specific membrane antigen (PSMA); settings: cited from earlier work

- Kd ([1]; 26.2 µM IgG, read-out: Kd): 29 µM
- Kd ([1]; 52.5 µM IgG, read-out: Kd): 42 µM
- Kd ([1]; 105 µM IgG, read-out: Kd): 62 µM
- Kd ([1]; average of three IgG concentrations, read-out: Avg Kd): 44 ± 17 µM
Compound: C[C@@H]1O[C@H](SCc2cn(CCOCCNC(=O)OCCOCCOCCOCCOCCOCCOCCOCCNC(=O)CCCC[C@@H]3SC[C@@H]4NC(=O)N[C@@H]43)nn2)[C@H](O)[C@H](O)[C@H]1O [compound 3]
- kon ([1]; 26.2 µM IgG): 19771 M⁻¹ s⁻¹
- koff ([1]; 26.2 µM IgG): 0.576 s⁻¹
- kon ([1]; 52.5 µM IgG): 11537 M⁻¹ s⁻¹
- koff ([1]; 52.5 µM IgG): 0.481 s⁻¹
- kon ([1]; 105 µM IgG): 6254 M⁻¹ s⁻¹
- koff ([1]; 105 µM IgG): 0.3901 s⁻¹

Compound: C[C@@H]1O[C@@H](SCc2cn(CCc3cn(C(=O)OCCOCCOCCOCCOCCOCCOCCOCCNC(=O)CCCC[C@@H]4SC[C@@H]5NC(=O)N[C@@H]54)cn3)nn2)[C@H](O)[C@H](O)[C@H]1O [compound 5]
- antibody binding signal, quench control [2]: significant antibody binding signal

Compound: glutamate urea [GU]
- Kd [3]: < 0.01 µM
